This is an account of results in PubChem BioAssay AID1918946 (Molecular Pharmacology Branch, DTP, NCI, 2023).

The subject of the assay is 885512-296-R-J2-PDC complex spheroid viability. Kind of assay: Anticancer human tumor 885512-296-R-J2-PDC patient-derived breast carcinoma cell line growth inhibition. To be noted: for viability, T/C: stronger effect = lower value; for IC50: curve of compound. From the text: Multicellular complex tumor spheroid response to LSD1 Inhibitor Iadademstat in combination with a variety of drugs and investigational agents in selected tumor cell lines
The current study was undertaken to assess response to LSD1 inhibitors in combination with standard-of-care drugs and investigational agents in solid tumor complex spheroid models as well as in the K-562 leukemia. Complex spheroids include a stromal component modeled by human endothelial cells (HUVEC) and fibroblasts modeled by human mesenchymal stem cells (MSCs). The concentration ranges selected for each drug and investigational agent were based upon clinically achievable concentrations if the clinical Cmax of the agent was known.
Compounds. The drugs and investigational agents used in this study are listed on Table 1. All of the agents used, including staurosporine (NSC755774) and gemcitabine (NSC613327), were obtained from the Developmental Therapeutics Program, NCI. FDA-approved anticancer drugs are available from the NCI at http://dtp.nci.nih.gov/branches/dscb/oncology_drugset_explanation.html. Drugs and investigational agents were >95% pure by proton nuclear magnetic resonance (NMR) and liquid chromatography/mass spectrometry (LC/MS). Stock solutions were prepared at 400x in DMSO, stored at -70 degrees C, and diluted in fresh medium prior to their use. The final concentration of DMSO in cell culture wells never exceeded 0.25% (v/v). The FDA-approved anticancer drug set is available from the Developmental Therapeutics Program at https://dtp.cancer.gov/organization/dscb/obtaining/available_plates.htm. All drugs and investigational agents were tested over a range starting from a high concentration at or near the clinical Cmax and decreasing in half-log increments. If the clinical Cmax for an agent had not been determined, the highest concentration tested was 10 microM.
Cell Lines. The patient-derived cancer cell (PDC) lines: 292921-168-R-J2-PDC, K24384-001-R-PDC, and 521955-158-R2-J5-PDC pancreatic carcinomas, 556581-035-R-J1 ovarian carcinoma, 324938-238-R-J1-PDC, 855422-203-R-J1-PDC and 883617-216-R-J1-PDC urothelial bladder carcinomas, 743489-274-T-PDC renal cell carcinoma, 138582-R-J1 Merkel cell tumor, K60290-347-R-J1 and K57222-313-R-J1-PDC glioblastomas, 653999-131-R-J2-PDC, LG0703-F948-PDC, and 349418-098-R-PDC non-small cell lung carcinomas, 885512-296-R-J2-PDC, 171881-019-R-J1-PDC breast carcinomas and 186277-243-T-J2-PDC and 233499-124-R-J2-PDC colon carcinomas were obtained from the NCI Patient-Derived Models Repository (PDMR, https://pdmr.cancer.gov). The established cell lines NCI/ADR-RES (RRID:CVCL_14520 and OVCAR-5 (RRID:CVCL_1628) ovarian carcinomas, 786-O (RRID:CVCL_1051) and A498 (RRID:CVCL_A498) renal cell carcinoma, NCI-H211 (ATCC, cat. CRL-5824; RRID:CVCL_1529), NCI-H196 (ATCC, cat. CRL-5823, RRID:CVCL_1509), SW 1271 (ATCC, cat. CRL-2177, RRID:CVCL_1716) and NCI-H1876 (ATCC, cat. CRL-5902, RRID:CVCL_1503) small cell lung carcinomas, MDA-MB-231 (RRID:CVCL_0062) and MDA-MB-468 (RRID:CVCL_0419)breast carcinomas (10-12). Pooled donor human umbilical vein endothelial cells (HUVEC, Lonza, cat. CC-2519) and human mesenchymal stem cells (hMSC, Lonza, cat. PT-2501) were purchased from Lonza (Walkersville, MD).
Cell Culture. All cells were maintained in an incubator at 37 degrees C and 5% CO2 with 95% humidity. The PDC lines were cultured according to standard operating procedures established by the NCI PDMR (https://pdmr.cancer.gov). Briefly all PDCs were thawed and cultured in Matrigel-coated flasks prepared with a working solution of 1X Ham's F-12 nutrient mix, without supplementation (Invitrogen, Waltham, MA, cat. 11765054), 100 U/mL penicillin-streptomycin (Invitrogen, cat. 15140122), and 2.5% Matrigel (Corning Inc., Corning, NY, cat. 354248) for the first three passages. […]

The structures appear in SMILES notation. Values joined by “and” are separate entries in the source; they are usually repeats but may differ in a detail not shown here. Equal entries are not always repeated. A value given as a limit tells only on which side of the number the result lay.
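Note: spheroids exposed to agents for 7 days before viability read.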

Broadly, the viability, T/C is the ratio of treated to control. Usually IC50 stands for the concentration that gives 50% inhibition. In the case of `CC(C)CC(NC(=O)C(Cc1ccccc1)NC(=O)c1cnccn1)B(O)O` (stereo unspecified), the IC50 is 0.879 nM and < 0.316 nM. The viability, T/C (compound 0.000316 µM) is 99.8% and 17.9%. The viability, T/C (compound 0.00316 µM) is 2.61% and 0.22%. The viability, T/C (compound 0.01 µM) was 4.07% and 0.18%. Moreover, under “compound 0.0316 µM”, the viability, T/C is 0.12% and 0.1%. The viability, T/C (compound 0.1 µM) was 3.52% and 0.14%.

`CC(C)CC(NC(=O)CNC(=O)c1cc(Cl)ccc1Cl)B1OC(=O)CC(CC(=O)O)(C(=O)O)O1` (stereo unspecified): the IC50 is 6.45 nM and 4.56 nM. For the same compound, the viability, T/C (compound 0.000316 µM) is 102% and 89.6%. For the setting “compound 0.001 µM”, the viability, T/C was 84.1% and 89.2%. Further, for the setting “compound 0.00316 µM”, the viability, T/C was 96.3% and 68.9%. Further, the viability, T/C (compound 0.01 µM) was 22.7% and 9.34%. Moreover, where the note is “compound 0.0316 µM”, the viability, T/C was 8.52% and 2.1%. Also, the viability, T/C (compound 0.1 µM) was 4.36% and 0.41%.

In the case of `CC[C@@]1(O)C(=O)OCc2c1cc1n(c2=O)Cc2cc3c(CN(C)C)c(O)ccc3nc2-1`, the IC50 was 0.41 nM and 0.678 nM. In addition, where the note is “compound 0.000316 µM”, the viability, T/C is 59.8% and 76.7%. The viability, T/C (compound 0.001 µM) was 16.6% and 36.4%. The viability, T/C (compound 0.00316 µM) is 8.16% and 3.47%. Moreover, where the note is “compound 0.01 µM”, the viability, T/C was 7.89% and 3.58%. For the same compound, the viability, T/C (compound 0.0316 µM) is 9.39% and 2.75%. The viability, T/C (compound 0.1 µM) is 9.51% and 1.92%.

Take `CCc1c2c(nc3ccc(O)cc13)-c1cc3c(c(=O)n1C2)COC(=O)[C@]3(O)CC`: the IC50 was below 0.949 nM. Moreover, the viability, T/C (compound 0.000949 µM) was 7.33% and 2.09%. Also, the viability, T/C (compound 0.003 µM) was 4.69% and 2%. The viability, T/C (compound 0.00949 µM) is 4.28% and 1.07%. The viability, T/C (compound 0.03 µM) is 6.78% and 1.14%. Also, the viability, T/C (compound 0.0949 µM) is 12.3% and 1.2%. Moreover, the viability, T/C (compound 0.3 µM) is 3.96% and 1.27%.

As for `COc1cc(C2c3cc4c(cc3C(OC3OC5COC(C)OC5C(O)C3O)C3COC(=O)C23)OCO4)cc(OC)c1O` (stereo unspecified), the IC50 was 50.5 nM and 47 nM. Besides, the viability, T/C (compound 0.00949 µM) is 86.4% and 69.3%. Also, the viability, T/C (compound 0.03 µM) was 64.5% and 70.5%. For the same compound, the viability, T/C (compound 0.0949 µM) is 32.7% and 18.8%. Moreover, the viability, T/C (compound 0.3 µM) is 10.8% and 4.99%. Moreover, the viability, T/C (compound 0.949 µM) was 6.14% and 3.49%. In addition, the viability, T/C (compound 3 µM) was 7.43% and 2.68%.

In the case of `COc1cc(Nc2ncc3c(n2)-c2ccc(Cl)cc2C(c2c(F)cccc2OC)=NC3)ccc1C(=O)O`, the IC50 was 5.39 nM and < 3.16 nM. The viability, T/C (compound 0.00316 µM) is 63.8% and 24.6%. For the setting “compound 0.01 µM”, the viability, T/C is 32.3% and 28.3%. Moreover, the viability, T/C (compound 0.0316 µM) was 23% and 22.3%. For the same compound, the viability, T/C (compound 0.1 µM) is 31.3% and 21%. Moreover, where the note is “compound 0.316 µM”, the viability, T/C was 14.5% and 18.3%. In addition, under “compound 1 µM”, the viability, T/C is 12% and 14.3%.

For `Cn1ncnc1C1c2n[nH]c(=O)c3cc(F)cc(c23)NC1c1ccc(F)cc1` (stereo unspecified), the IC50 was 15.9 nM and 38.4 nM. Also, the viability, T/C (compound 0.000316 µM) was 113% and 78.9%. Also, under “compound 0.001 µM”, the viability, T/C was 96.4% and 90.1%. Also, the viability, T/C (compound 0.00316 µM) was 81.5% and 89.5%. The viability, T/C (compound 0.01 µM) was 58.5% and 70.7%. Moreover, where the note is “compound 0.0316 µM”, the viability, T/C was 36.5% and 55.6%. Further, the viability, T/C (compound 0.1 µM) was 15.5% and 29.8%.

With `Nc1ccn(C2OC(CO)C(O)C2(F)F)c(=O)n1` (stereo unspecified), the IC50 is below 0.949 nM. For the same compound, the viability, T/C (compound 0.000949 µM) was 5.28% and 20.8%. For the same compound, the viability, T/C (compound 0.003 µM) was 8.05% and 3%. Also, for the setting “compound 0.00949 µM”, the viability, T/C was 5.82% and 2.16%. The viability, T/C (compound 0.03 µM) is 8.91% and 2.45%. In addition, the viability, T/C (compound 0.0949 µM) is 10.2% and 2.79%. Moreover, the viability, T/C (compound 0.3 µM) is 8.07% and 3.31%.

Consider `Nc1ncn(C2CC(O)C(CO)O2)c(=O)n1` (stereo unspecified), for which the IC50 was 18.6 nM and 63.9 nM. Besides, the viability, T/C (compound 0.00316 µM) is 74.3% and 93.4%. In addition, the viability, T/C (compound 0.01 µM) is 60.7% and 84.3%. Further, the viability, T/C (compound 0.0316 µM) is 40.7% and 68.5%. Further, the viability, T/C (compound 0.1 µM) was 28.2% and 37.6%. Besides, the viability, T/C (compound 0.316 µM) was 23.4% and 23.6%. For the same compound, where the note is “compound 1 µM”, the viability, T/C is 11.6% and 15.8%.

On to `Nc1ncn(C2CC(O)C(CO)S2)c(=O)n1` (stereo unspecified), for which the IC50 was 4.06 nM and 4.91 nM. The viability, T/C (compound 0.000949 µM) is 81.4% and 90.5%. Also, the viability, T/C (compound 0.003 µM) is 52.7% and 62.2%. Moreover, under “compound 0.00949 µM”, the viability, T/C was 39.5% and 33.1%. Moreover, the viability, T/C (compound 0.03 µM) is 17.3% and 19.7%. Where the note is “compound 0.0949 µM”, the viability, T/C was 10.9% and 9.65%. Moreover, the viability, T/C (compound 0.3 µM) was 12% and 4.63%.

As for `O=C(C=Cn1cnc(-c2cc(C(F)(F)F)cc(C(F)(F)F)c2)n1)NNc1cnccn1`, the IC50 was below 3.16 nM. The viability, T/C (compound 0.00316 µM) was 31.1% and 23.7%. Further, for the setting “compound 0.01 µM”, the viability, T/C was 5.75% and 8.41%. In addition, the viability, T/C (compound 0.0316 µM) is 3.88% and 2.23%. Also, the viability, T/C (compound 0.1 µM) was 6.09% and 0.68%. Also, the viability, T/C (compound 0.316 µM) was 7.95% and 0.57%. Besides, for the setting “compound 1 µM”, the viability, T/C was 6.27% and 0.53%.
